Patent US9340590B2 (priority 2011, dated 2016)
Positions of bridges follow the written chain, without caps; N, C: chain ends. Non-standard residues stand in square brackets, D forms with d. Residues, ends and D or L forms follow the SMILES beside them. *: point of attachment. Cit = NC(=O)NCCC[C@H](N)C(=O)O; Pent4ynoyl = C#CCCC(=O)*; Dab = NCC[C@H](N)C(=O)O; Nva = CCC[C@H](N)C(=O)O; Abu = CC[C@H](N)C(=O)O

Experiments:
hNav1.7 = hNav1.7 (Homo sapiens, UniProt Q15858); experiment: cell-based; conditions: Nav1.7 Use IC50
hNav1.5 = hNav1.5 (Homo sapiens, UniProt Q14524); experiment: cell-based
hNav1.5, sequence (Q14524 whole entry, looked up): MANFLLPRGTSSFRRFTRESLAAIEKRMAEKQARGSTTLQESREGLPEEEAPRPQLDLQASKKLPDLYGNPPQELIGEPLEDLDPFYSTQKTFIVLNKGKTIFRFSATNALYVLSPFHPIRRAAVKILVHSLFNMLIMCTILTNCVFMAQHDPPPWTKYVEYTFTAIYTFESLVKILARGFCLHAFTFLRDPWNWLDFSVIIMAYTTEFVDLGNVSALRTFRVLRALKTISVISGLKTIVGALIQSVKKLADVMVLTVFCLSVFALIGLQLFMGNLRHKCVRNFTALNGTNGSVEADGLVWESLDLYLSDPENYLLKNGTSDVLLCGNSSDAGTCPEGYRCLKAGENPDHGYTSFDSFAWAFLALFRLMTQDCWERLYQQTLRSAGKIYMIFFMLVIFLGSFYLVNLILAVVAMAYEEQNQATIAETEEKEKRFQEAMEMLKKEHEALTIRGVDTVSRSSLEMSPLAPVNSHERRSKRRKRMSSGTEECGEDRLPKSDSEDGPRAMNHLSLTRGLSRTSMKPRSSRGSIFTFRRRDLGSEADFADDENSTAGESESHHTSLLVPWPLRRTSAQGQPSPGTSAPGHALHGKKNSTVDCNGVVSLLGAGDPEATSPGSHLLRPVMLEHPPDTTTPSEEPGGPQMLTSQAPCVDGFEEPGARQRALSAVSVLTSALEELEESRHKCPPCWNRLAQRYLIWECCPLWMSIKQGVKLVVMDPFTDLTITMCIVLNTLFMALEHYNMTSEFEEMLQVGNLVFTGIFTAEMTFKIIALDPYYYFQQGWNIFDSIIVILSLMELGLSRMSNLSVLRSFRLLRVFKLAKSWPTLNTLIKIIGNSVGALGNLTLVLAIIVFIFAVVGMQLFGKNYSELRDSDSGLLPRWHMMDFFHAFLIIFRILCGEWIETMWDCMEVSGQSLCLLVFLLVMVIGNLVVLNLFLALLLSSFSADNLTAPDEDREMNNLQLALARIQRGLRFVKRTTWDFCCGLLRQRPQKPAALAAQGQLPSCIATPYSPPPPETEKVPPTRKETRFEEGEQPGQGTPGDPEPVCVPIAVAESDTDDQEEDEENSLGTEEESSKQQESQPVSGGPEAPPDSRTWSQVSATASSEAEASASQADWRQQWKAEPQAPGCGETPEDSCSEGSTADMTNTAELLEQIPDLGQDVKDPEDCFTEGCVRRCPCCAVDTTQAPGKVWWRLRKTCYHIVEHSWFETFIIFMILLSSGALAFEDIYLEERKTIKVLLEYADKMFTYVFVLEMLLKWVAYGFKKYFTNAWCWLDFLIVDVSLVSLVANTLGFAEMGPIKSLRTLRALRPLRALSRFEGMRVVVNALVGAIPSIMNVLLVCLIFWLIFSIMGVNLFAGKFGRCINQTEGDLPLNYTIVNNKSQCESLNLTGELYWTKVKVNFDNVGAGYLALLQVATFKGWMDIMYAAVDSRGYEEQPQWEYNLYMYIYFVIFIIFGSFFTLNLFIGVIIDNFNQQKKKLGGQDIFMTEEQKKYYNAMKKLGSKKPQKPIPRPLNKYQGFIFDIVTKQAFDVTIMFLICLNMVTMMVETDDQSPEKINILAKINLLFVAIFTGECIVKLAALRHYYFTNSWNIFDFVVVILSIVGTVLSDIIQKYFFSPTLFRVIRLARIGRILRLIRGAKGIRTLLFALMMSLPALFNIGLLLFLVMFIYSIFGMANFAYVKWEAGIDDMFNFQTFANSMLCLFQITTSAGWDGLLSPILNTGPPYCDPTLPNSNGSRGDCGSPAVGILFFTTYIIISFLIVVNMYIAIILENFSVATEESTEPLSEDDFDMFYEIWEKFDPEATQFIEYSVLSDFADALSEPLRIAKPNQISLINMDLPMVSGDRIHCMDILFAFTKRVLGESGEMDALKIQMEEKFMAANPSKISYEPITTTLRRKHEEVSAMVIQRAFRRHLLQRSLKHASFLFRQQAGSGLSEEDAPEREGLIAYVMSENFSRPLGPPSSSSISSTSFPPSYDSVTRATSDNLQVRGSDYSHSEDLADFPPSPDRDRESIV

hNav1.7, sequence (Q15858 whole entry, looked up): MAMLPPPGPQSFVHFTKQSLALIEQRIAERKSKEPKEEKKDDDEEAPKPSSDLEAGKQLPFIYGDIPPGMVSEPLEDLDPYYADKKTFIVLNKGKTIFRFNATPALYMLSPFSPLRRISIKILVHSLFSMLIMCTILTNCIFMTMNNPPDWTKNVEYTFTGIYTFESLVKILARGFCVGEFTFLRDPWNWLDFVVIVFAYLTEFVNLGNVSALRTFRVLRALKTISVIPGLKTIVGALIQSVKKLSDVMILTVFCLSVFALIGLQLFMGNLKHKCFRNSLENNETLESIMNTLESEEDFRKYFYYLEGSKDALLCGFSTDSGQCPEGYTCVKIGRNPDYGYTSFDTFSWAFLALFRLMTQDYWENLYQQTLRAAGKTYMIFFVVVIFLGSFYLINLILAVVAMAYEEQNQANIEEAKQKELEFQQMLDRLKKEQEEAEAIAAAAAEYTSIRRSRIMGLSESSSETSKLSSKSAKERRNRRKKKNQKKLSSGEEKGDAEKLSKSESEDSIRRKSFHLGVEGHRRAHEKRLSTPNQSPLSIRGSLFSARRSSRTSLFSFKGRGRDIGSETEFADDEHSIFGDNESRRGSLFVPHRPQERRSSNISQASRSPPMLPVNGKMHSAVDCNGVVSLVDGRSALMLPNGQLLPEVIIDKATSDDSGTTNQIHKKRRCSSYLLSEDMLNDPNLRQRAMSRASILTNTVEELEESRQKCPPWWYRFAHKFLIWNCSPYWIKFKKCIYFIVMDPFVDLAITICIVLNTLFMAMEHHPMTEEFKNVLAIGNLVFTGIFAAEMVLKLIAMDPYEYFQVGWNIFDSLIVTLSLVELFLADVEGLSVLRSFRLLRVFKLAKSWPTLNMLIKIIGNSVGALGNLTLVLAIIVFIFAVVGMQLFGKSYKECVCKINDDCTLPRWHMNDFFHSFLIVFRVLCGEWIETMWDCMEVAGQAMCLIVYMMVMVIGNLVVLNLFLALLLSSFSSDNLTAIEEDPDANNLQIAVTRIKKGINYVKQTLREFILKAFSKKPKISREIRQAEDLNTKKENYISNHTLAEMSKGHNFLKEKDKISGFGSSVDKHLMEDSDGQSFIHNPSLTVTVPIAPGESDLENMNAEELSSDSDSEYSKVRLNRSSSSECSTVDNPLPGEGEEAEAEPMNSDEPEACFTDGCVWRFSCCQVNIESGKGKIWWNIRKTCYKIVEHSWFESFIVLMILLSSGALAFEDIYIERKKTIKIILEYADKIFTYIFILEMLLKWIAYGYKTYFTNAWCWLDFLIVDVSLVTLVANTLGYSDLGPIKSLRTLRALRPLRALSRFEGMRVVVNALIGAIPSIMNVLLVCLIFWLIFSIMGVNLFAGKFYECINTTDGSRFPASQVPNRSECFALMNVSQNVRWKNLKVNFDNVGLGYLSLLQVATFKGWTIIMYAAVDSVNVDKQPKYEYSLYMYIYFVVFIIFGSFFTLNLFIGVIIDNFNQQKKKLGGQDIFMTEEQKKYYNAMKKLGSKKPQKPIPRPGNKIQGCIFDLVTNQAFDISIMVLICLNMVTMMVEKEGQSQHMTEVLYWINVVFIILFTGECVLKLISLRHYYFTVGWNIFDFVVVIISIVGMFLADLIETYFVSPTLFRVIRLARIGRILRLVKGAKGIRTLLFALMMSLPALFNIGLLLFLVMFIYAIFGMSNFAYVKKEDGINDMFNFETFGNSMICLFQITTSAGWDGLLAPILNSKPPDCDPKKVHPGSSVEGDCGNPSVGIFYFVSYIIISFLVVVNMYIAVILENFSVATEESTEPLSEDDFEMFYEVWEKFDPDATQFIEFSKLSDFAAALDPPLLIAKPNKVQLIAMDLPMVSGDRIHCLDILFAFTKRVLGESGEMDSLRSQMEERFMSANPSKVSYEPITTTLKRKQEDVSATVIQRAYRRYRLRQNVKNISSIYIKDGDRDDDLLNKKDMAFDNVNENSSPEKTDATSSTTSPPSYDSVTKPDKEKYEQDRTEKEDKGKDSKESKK

In the case of `CCC[C@@H]1NC(=O)CNC(=O)[C@H](CC(C)C)NC(=O)[C@@H](NC(=O)[C@@H](N)CC(=O)O)CSSC[C@@H]2NC(=O)[C@@H]3CSSC[C@@H](C(=O)N[C@@H](CCCCN)C(=O)N[C@@H](Cc4ccc(O)cc4)C(=O)N[C@H](C(=O)N[C@@H](Cc4ccccc4)C(N)=O)C(C)C)NC(=O)[C@H](Cc4c[nH]c5ccccc45)NC(=O)[C@H](CCC(=O)O)NC(=O)[C@H](Cc4c[nH]cn4)NC(=O)[C@H]([C@@H](C)O)NC(=O)[C@H](CCCNC(=N)N)NC(=O)[C@H](CO)NC(=O)[C@H](CSSC[C@H](NC(=O)[C@H](CCCCN)NC(=O)[C@H](CCCNC(=N)N)NC(=O)[C@H](CCSC)NC1=O)C(=O)N[C@@H]([C@@H](C)CC)C(=O)N1CCC[C@H]1C(=O)N[C@@H](CC(=O)O)C(=O)N[C@@H](CC(N)=O)C(=O)N[C@@H](CC(=O)O)C(=O)N[C@@H](CCCCN)C(=O)N3)NC(=O)[C@H](C(C)C)NC(=O)[C@H](CC(C)C)NC(=O)[C@H](CC(N)=O)NC(=O)[C@@H]1CCCN1C(=O)[C@H](CCCNC(=N)N)NC2=O` [[Nva5;Glu28]GpTx-1(1-34)] (H-DCLG[Nva]MRKCIPDNDKCCRPNLVCSRTHEWCKYVF-NH2; disulfide 2-17, 9-23, 16-30), the IC50 (hNav1.7) is reported as 56 nM and the IC50 (hNav1.5) is reported as > 10000 nM.

`C#CCCC(=O)NCCCC[C@@H]1NC(=O)[C@H](CC(=O)O)NC(=O)[C@@H]2CCCN2C(=O)[C@H]([C@@H](C)CC)NC(=O)[C@@H]2CSSC[C@@H]3NC(=O)[C@H](C(C)C)NC(=O)[C@H](CC(C)C)NC(=O)[C@H](CC(N)=O)NC(=O)[C@@H]4CCCN4C(=O)[C@H](CCCNC(=N)N)NC(=O)[C@H](CSSC[C@H](NC(=O)[C@@H](N)CC(=O)O)C(=O)N[C@@H](CC(C)C)C(=O)NCC(=O)N[C@@H](CC)C(=O)N[C@@H](CC(C)C)C(=O)N[C@@H](CCCNC(=N)N)C(=O)N[C@@H](CCCCN)C(=O)N2)NC(=O)[C@H](CSSC[C@@H](C(=O)N[C@@H](CCCCN)C(=O)N[C@@H](Cc2ccc(O)cc2)C(=O)N[C@H](C(=O)N[C@@H](Cc2ccccc2)C(N)=O)C(C)C)NC(=O)[C@H](Cc2c[nH]c4ccccc24)NC(=O)[C@H](CCCNC(=N)N)NC(=O)[C@H](Cc2c[nH]cn2)NC(=O)[C@H]([C@@H](C)O)NC(=O)[C@H](CCCNC(=N)N)NC(=O)[C@H](CO)NC3=O)NC(=O)[C@H](CCCCN)NC(=O)[C@H](CC(=O)O)NC1=O` (H-DCLG[Abu]LRKCIPDK(Pent4ynoyl)DKCCRPNLVCSRTHRWCKYVF-NH2; disulfide 2-17, 9-23, 16-30) was tested, and the IC50 (hNav1.7) was 2 nM and the IC50 (hNav1.5) was > 10000 nM.

For `CC[C@H](C)[C@@H]1NC(=O)[C@@H]2CSSC[C@@H]3NC(=O)[C@H](C(C)C)NC(=O)[C@H](CC(C)C)NC(=O)[C@H](CC(N)=O)NC(=O)[C@@H]4CCCN4C(=O)[C@H](CCCNC(=N)N)NC(=O)[C@H](CSSC[C@H](NC(=O)[C@@H](N)CC(=O)O)C(=O)N[C@@H](CC(C)C)C(=O)NCC(=O)N[C@@H](C(C)(C)C)C(=O)N[C@@H](CC(C)C)C(=O)N[C@@H](CCCNC(=N)N)C(=O)N[C@@H](CCCCN)C(=O)N2)NC(=O)[C@H](CSSC[C@@H](C(=O)N[C@@H](CCCCN)C(=O)N[C@@H](Cc2ccc(O)cc2)C(=O)N[C@H](C(=O)N[C@@H](Cc2ccccc2)C(N)=O)C(C)C)NC(=O)[C@H](Cc2c[nH]c4ccccc24)NC(=O)[C@H](CCCCN)NC(=O)[C@H](Cc2c[nH]cn2)NC(=O)[C@H]([C@@H](C)O)NC(=O)[C@H](CCCNC(=N)N)NC(=O)[C@H](CO)NC3=O)NC(=O)[C@H](CCCCN)NC(=O)[C@H](CC(=O)O)NC(=O)[C@H](CC(N)=O)NC(=O)[C@H](CC(=O)O)NC(=O)[C@@H]2CCCN2C1=O` [[Tle5;Leu6]GpTx-1(1-34)], the IC50 (hNav1.7) was 17 nM and the IC50 (hNav1.5) was > 10000 nM.

`CC[C@H](C)[C@@H]1NC(=O)[C@@H]2CSSC[C@@H]3NC(=O)[C@H](C(C)C)NC(=O)[C@H](CC(C)C)NC(=O)[C@H](CC(N)=O)NC(=O)[C@@H]4CCCN4C(=O)[C@H](CCCNC(=N)N)NC(=O)[C@H](CSSC[C@H](NC(=O)[C@@H](N)CC(=O)O)C(=O)N[C@@H](CC(C)C)C(=O)NCC(=O)N[C@@H](Cc4ccccc4)C(=O)N[C@@H](CCSC)C(=O)N[C@@H](CCCNC(=N)N)C(=O)N[C@@H](CCCCN)C(=O)N2)NC(=O)[C@H](CSSC[C@@H](C(=O)N[C@@H](CCCCN)C(=O)N[C@@H](Cc2ccc(O)cc2)C(=O)N[C@H](C(=O)N[C@@H](Cc2ccccc2)C(N)=O)C(C)C)NC(=O)[C@H](Cc2c[nH]c4ccccc24)NC(=O)[C@H](CCCCN)NC(=O)[C@H](Cc2cnc[nH]2)NC(=O)[C@H](Cc2cnc[nH]2)NC(=O)[C@H](CCCNC(=N)N)NC(=O)[C@H](CO)NC3=O)NC(=O)[C@H](CCCCN)NC(=O)[C@H](CC(=O)O)NC(=O)[C@H](CC(N)=O)NC(=O)[C@H](CC(=O)O)NC(=O)[C@@H]2CCCN2C1=O` [[His26]GpTx-1(1-34)] (H-DCLGFMRKCIPDNDKCCRPNLVCSRHHKWCKYVF-NH2; disulfide 2-17, 9-23, 16-30) was tested, and the IC50 (hNav1.7) was 3 nM and the IC50 (hNav1.5) was 4950 nM.

In the case of `CC[C@H](C)[C@@H]1NC(=O)[C@@H]2CSSC[C@@H]3NC(=O)[C@H](C(C)C)NC(=O)[C@H](CC(C)C)NC(=O)[C@H](CC(N)=O)NC(=O)[C@@H]4CCCN4C(=O)[C@H](CCCNC(=N)N)NC(=O)[C@H](CSSC[C@H](NC(=O)[C@@H](N)CC(=O)O)C(=O)N[C@@H](CC(C)C)C(=O)NCC(=O)N[C@@H](C)C(=O)N[C@@H](CCSC)C(=O)N[C@@H](CCCNC(=N)N)C(=O)N[C@@H](CCCCN)C(=O)N2)NC(=O)[C@H](CSSC[C@@H](C(=O)N[C@@H](CCCCN)C(=O)N[C@@H](Cc2ccc(O)cc2)C(=O)N[C@H](C(=O)N[C@@H](Cc2ccccc2)C(N)=O)C(C)C)NC(=O)[C@H](Cc2c[nH]c4ccccc24)NC(=O)[C@H](CCCNC(N)=O)NC(=O)[C@H](Cc2c[nH]cn2)NC(=O)[C@H]([C@@H](C)O)NC(=O)[C@H](CCCNC(=N)N)NC(=O)[C@H](CO)NC3=O)NC(=O)[C@H](CCCCN)NC(=O)[C@H](CC(=O)O)NC(=O)[C@H](CC(N)=O)NC(=O)[C@H](CC(=O)O)NC(=O)[C@@H]2CCCN2C1=O` [[Ala5;Cit28]GpTx-1(1-34)] (H-DCLGAMRKCIPDNDKCCRPNLVCSRTH[Cit]WCKYVF-NH2; disulfide 2-17, 9-23, 16-30), the IC50 (hNav1.7) is reported as 30 nM and the IC50 (hNav1.5) is reported as > 10000 nM.

With `CC[C@H](C)[C@@H]1NC(=O)[C@@H]2CSSC[C@@H]3NC(=O)[C@H](C(C)C)NC(=O)[C@H](CC(C)C)NC(=O)[C@H](CC(N)=O)NC(=O)[C@@H]4CCCN4C(=O)[C@H](CCCNC(=N)N)NC(=O)[C@H](CSSC[C@H](NC(=O)[C@@H](N)CC(=O)O)C(=O)N[C@@H](CC(C)C)C(=O)NCC(=O)N[C@@H](C)C(=O)N[C@@H](Cc4ccccc4)C(=O)N[C@@H](CCCNC(=N)N)C(=O)N[C@@H](CCCCN)C(=O)N2)NC(=O)[C@H](CSSC[C@@H](C(=O)N[C@@H](CCCCN)C(=O)N[C@@H](Cc2ccc(O)cc2)C(=O)N[C@H](C(=O)N[C@@H](Cc2ccccc2)C(N)=O)C(C)C)NC(=O)[C@H](Cc2c[nH]c4ccccc24)NC(=O)[C@H](CCCNC(=N)N)NC(=O)[C@H](Cc2c[nH]cn2)NC(=O)[C@H](CC(C)C)NC(=O)[C@H](CCCNC(=N)N)NC(=O)[C@H](CO)NC3=O)NC(=O)[C@H](CCCCN)NC(=O)[C@H](CC(=O)O)NC(=O)[C@H](Cc2cn(CCOCCOCCOCCOCCOCCOCCOCCOCCOCCOCCOCCNC(=O)CSCCO)nn2)NC(=O)[C@H](CC(=O)O)NC(=O)[C@@H]2CCCN2C1=O` the IC50 (hNav1.7) was 35 nM and the IC50 (hNav1.5) was > 10000 nM.

With `CC[C@H](C)[C@@H]1NC(=O)[C@@H]2CSSC[C@@H]3NC(=O)[C@H](C(C)C)NC(=O)[C@H](CC(C)C)NC(=O)[C@H](CC(N)=O)NC(=O)[C@@H]4CCCN4C(=O)[C@H](CCCNC(=N)N)NC(=O)[C@H](CSSC[C@H](NC(=O)[C@@H](N)CC(=O)O)C(=O)N[C@@H](CC(C)C)C(=O)NCC(=O)N[C@@H](C)C(=O)N[C@@H](CCSC)C(=O)N[C@@H](CCCNC(=N)N)C(=O)N[C@@H](CCCCN)C(=O)N2)NC(=O)[C@H](CSSC[C@@H](C(=O)N[C@@H](CCCCN)C(=O)N[C@@H](Cc2ccc(O)cc2)C(=O)N[C@H](C(=O)N[C@@H](Cc2ccccc2)C(N)=O)C(C)C)NC(=O)[C@H](Cc2c[nH]c4ccccc24)NC(=O)[C@H](CCN)NC(=O)[C@H](Cc2c[nH]cn2)NC(=O)[C@H]([C@@H](C)O)NC(=O)[C@H](CCCNC(=N)N)NC(=O)[C@H](CO)NC3=O)NC(=O)[C@H](CCCCN)NC(=O)[C@H](CC(=O)O)NC(=O)[C@H](CC(N)=O)NC(=O)[C@H](CC(=O)O)NC(=O)[C@@H]2CCCN2C1=O` [[Ala5;Dab28]GpTx-1(1-34)] (H-DCLGAMRKCIPDNDKCCRPNLVCSRTH[Dab]WCKYVF-NH2; disulfide 2-17, 9-23, 16-30) the IC50 (hNav1.7) was 13 nM and the IC50 (hNav1.5) was > 10000 nM.

`CC[C@H](C)[C@@H]1NC(=O)[C@@H]2CSSC[C@@H]3NC(=O)[C@H](C(C)C)NC(=O)[C@H](CC(C)C)NC(=O)[C@H](CC(N)=O)NC(=O)[C@@H]4CCCN4C(=O)[C@H](CCCNC(=N)N)NC(=O)[C@H](CSSC[C@H](NC(=O)[C@@H](N)CC(=O)O)C(=O)N[C@@H](CC(C)C)C(=O)NCC(=O)N[C@@H](Cc4ccccc4)C(=O)N[C@@H](CCSC)C(=O)N[C@@H](CCCNC(=N)N)C(=O)N[C@@H](CCCCN)C(=O)N2)NC(=O)[C@H](CSSC[C@@H](C(=O)N[C@@H](CCCCN)C(=O)N[C@@H](Cc2ccc(O)cc2)C(=O)N[C@H](C(=O)N[C@@H](Cc2ccccc2)C(N)=O)C(C)C)NC(=O)[C@H](Cc2c[nH]c4ccccc24)NC(=O)[C@H](CCCCN)NC(=O)[C@H](Cc2c[nH]cn2)NC(=O)[C@H]([C@@H](C)O)NC(=O)[C@H](CCCNC(=N)N)NC(=O)[C@H](CO)NC3=O)NC(=O)[C@H](CCC(=O)O)NC(=O)[C@H](CC(=O)O)NC(=O)[C@H](CC(N)=O)NC(=O)[C@H](CC(=O)O)NC(=O)[C@@H]2CCCN2C1=O` [[Glu15]GpTx-1(1-34)] (H-DCLGFMRKCIPDNDECCRPNLVCSRTHKWCKYVF-NH2; disulfide 2-17, 9-23, 16-30) gave an IC50 (hNav1.7) of 20 nM and an IC50 (hNav1.5) of 10000 nM.
